Laboratory results published in patent US10077261B2, “Imidazolin-5-one derivative useful as FASN inhibitors for the treatment of cancer” (Janssen Pharmaceutica NV, priority 2012, dated 2018).

Biological target: T1, hFASN enzyme (full length) (Homo sapiens, UniProt P49327)
T1 construct: 10 μL hFASN enzyme (full length, 300 ng, purified in house); made in house
Experiment: Fatty Acid Synthase (FASN) inhibition scintillation proximity assay
Format: biochemical
Conditions: for inhibition at 10 µM: read-out: Human FASN % inhibition @ 10 μM, 10 μM test compound; for IC50: read-out: Human FASN pIC50 (converted)
How it was run: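 Read-out relies on hydrophobic ³H-palmitate product, formed from ³H-acetyl-CoA and malonyl-CoA, binding streptavidin imaging beads, measured at 610±20 nm after at least 24 h. Full-length enzyme (300 ng) in phosphate buffer pH 7.5 with DTT; eight compound concentrations, 0.01–30 μM.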

T1 sequence (P49327 whole entry): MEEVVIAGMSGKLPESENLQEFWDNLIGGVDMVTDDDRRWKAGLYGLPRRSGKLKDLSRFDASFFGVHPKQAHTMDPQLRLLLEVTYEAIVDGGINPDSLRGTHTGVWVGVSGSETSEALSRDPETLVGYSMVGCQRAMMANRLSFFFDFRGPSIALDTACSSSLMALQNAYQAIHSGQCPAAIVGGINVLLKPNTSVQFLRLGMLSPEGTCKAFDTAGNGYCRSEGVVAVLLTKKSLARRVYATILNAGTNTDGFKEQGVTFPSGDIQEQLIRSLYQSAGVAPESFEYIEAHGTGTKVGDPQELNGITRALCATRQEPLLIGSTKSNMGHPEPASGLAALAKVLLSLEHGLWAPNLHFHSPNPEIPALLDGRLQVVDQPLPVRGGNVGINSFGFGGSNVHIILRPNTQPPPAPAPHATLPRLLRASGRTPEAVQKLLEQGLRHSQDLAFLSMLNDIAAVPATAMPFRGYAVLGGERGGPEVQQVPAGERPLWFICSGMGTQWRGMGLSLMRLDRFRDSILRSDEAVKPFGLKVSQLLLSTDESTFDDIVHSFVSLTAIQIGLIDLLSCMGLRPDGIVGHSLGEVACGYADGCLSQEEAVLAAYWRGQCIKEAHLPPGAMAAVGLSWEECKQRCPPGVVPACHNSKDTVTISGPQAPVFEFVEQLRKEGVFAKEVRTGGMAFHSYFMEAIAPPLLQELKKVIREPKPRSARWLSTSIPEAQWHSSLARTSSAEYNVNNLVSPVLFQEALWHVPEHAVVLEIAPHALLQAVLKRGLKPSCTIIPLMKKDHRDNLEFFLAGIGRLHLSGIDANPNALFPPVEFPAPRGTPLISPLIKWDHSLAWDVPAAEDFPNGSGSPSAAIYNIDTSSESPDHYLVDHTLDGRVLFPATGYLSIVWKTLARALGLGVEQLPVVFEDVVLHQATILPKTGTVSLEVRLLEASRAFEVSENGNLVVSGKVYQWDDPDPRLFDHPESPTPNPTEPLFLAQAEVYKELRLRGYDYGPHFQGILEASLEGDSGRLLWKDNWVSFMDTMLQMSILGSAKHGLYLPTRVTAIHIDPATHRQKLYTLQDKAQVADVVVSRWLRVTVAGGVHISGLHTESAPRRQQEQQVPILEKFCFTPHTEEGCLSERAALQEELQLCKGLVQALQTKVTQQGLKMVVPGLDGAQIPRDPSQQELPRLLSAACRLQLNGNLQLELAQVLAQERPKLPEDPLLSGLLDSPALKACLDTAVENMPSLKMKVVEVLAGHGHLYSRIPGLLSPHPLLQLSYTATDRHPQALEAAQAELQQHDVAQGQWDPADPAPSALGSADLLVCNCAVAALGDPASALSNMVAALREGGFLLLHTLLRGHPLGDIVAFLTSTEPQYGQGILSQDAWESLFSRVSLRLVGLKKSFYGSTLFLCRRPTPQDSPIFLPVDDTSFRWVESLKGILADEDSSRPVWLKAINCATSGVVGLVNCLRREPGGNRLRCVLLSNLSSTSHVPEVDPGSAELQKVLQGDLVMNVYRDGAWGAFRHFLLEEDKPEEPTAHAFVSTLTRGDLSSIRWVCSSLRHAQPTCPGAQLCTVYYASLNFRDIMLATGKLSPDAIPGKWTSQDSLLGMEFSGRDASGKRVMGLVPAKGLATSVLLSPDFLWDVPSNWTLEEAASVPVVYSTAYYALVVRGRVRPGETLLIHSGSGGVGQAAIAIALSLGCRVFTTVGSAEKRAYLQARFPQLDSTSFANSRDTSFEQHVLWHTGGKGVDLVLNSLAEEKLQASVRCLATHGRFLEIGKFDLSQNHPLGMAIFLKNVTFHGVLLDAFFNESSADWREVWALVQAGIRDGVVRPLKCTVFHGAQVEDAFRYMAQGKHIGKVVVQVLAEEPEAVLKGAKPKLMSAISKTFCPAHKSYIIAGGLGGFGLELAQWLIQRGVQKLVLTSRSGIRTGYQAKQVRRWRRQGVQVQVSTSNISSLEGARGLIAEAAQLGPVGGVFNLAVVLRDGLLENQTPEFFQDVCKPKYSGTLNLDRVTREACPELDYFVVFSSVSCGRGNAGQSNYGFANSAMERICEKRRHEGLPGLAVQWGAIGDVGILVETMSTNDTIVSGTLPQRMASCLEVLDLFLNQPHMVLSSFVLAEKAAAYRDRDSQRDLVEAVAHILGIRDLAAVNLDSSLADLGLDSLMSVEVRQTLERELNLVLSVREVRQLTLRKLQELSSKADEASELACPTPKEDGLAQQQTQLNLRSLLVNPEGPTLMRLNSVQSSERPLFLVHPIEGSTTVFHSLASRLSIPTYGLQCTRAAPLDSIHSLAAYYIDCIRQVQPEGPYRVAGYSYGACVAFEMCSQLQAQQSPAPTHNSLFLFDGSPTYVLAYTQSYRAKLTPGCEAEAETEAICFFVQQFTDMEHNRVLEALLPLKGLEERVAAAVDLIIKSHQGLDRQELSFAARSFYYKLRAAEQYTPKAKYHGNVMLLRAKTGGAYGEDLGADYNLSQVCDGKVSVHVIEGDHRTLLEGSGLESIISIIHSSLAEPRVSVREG

Structure (SMILES): Cc1cc2cc(-c3ccc(C4=NC5(CC5)C(=O)N4CC4CN(C(=O)C5CC5)C4)cc3F)ccc2s1 [compound 433, 6-{[1-(Cyclopropylcarbonyl)azetidin-3-yl]methyl}-5-[3-fluoro-4-(2-methyl-1-benzothiophen-5-yl)phenyl]-4,6-diazaspiro[2.4]hept-4-en-7-one]
- inhibition at 10 µM: 72%
- IC50: 1.82 µM

Structure (SMILES): Cn1cc(-c2ccc(-c3ccc(C4=NC5(CCOC5)C(=O)N4CC4CN(S(C)(=O)=O)C4)cc3)cc2)cn1 (centres unmarked) [compound 950, 2-(4′-(1-methyl-1H-pyrazol-4-yl)-[1,1′-biphenyl]-4-yl)-3-((1-(methylsulfonyl)azetidin-3-yl)methyl)-7-oxa-1,3-diazaspiro[4.4]non-1-en-4-one]
- inhibition at 10 µM: -1.27%
- IC50: > 10 µM

Structure (SMILES): O=C(C1CC1)N1CCC(CN2C(=O)C3(CC3)N=C2c2ccc(-c3ccc(C(F)(F)F)cc3)cc2)CC1 [compound 107, 6-{[1-(Cyclopropylcarbonyl)piperidin-4-yl]methyl}-5-[4′-(trifluoromethyl)biphenyl-4-yl]-4,6-diazaspiro[2.4]hept-4-en-7-one]
- inhibition at 10 µM: 10.6%
- IC50: > 10 µM

Structure (SMILES): COC(=O)N1CC2(C1)N=C(c1ccc(-c3ccc4occc4c3)cc1)N(C[C@@H]1CCN(S(C)(=O)=O)C1)C2=O [compound 956, (S)-methyl 6-(4-(benzofuran-5-yl)phenyl)-7-((1-(methylsulfonyl)pyrrolidin-3-yl)methyl)-8-oxo-2,5,7-triazaspiro[3.4]oct-5-ene-2-carboxylate]
- inhibition at 10 µM: 8%
- IC50: > 10 µM

Structure (SMILES): O=C(C1CC1)N1CC[C@@H](CN2C(=O)C3(CC3)N=C2c2ccc(-c3ccc4c(c3)CCCO4)cc2)C1 [compound 464, 6-{[(3R)-1-(Cyclopropylcarbonyl)pyrrolidin-3-yl]methyl}-5-[4-(3,4-dihydro-2H-chromen-6-yl)phenyl]-4,6-diazaspiro[2.4]hept-4-en-7-one]
- inhibition at 10 µM: 66%
- IC50: 4.07 µM

Structure (SMILES): O=C(C1CC1)N1CCC(CN2C(=O)C3(CC3)N=C2c2ccc(-c3cccc(O)c3)cc2)CC1 [compound 108, 6-{[1-(Cyclopropylcarbonyl)piperidin-4-yl]methyl}-5-(3′-hydroxybiphenyl-4-yl)-4,6-diazaspiro[2.4]hept-4-en-7-one]
- inhibition at 10 µM: 83.8%
- IC50: 1.51 µM

Structure (SMILES): Cn1cc(-c2ccc(-c3ccc(C4=NC5(CCOC5)C(=O)N4C[C@@H]4CCN(C(=O)N5CCCC5)C4)cc3)cc2)cn1 (stereo partly drawn) [compound 679, 2-[4′-(1-Methyl-1H-pyrazol-4-yl)biphenyl-4-yl]-3-{[(3S)-1-(pyrrolidin-1-ylcarbonyl)pyrrolidin-3-yl]methyl}-7-oxa-1,3-diazaspiro[4.4]non-1-en-4-one]
- inhibition at 10 µM: 57%
- IC50: ~6.17 µM

Structure (SMILES): Cn1nccc1-c1ccc(C2=NC3(CC3)C(=O)N2CC2CN(C(=O)C3CC3)C2)cc1 [compound 43, 6-{[1-(Cyclopropylcarbonyl)azetidin-3-yl]methyl}-5-[4-(1-methyl-1H-pyrazol-5-yl)phenyl]-4,6-diazaspiro[2.4]hept-4-en-7-one]
- inhibition at 10 µM: 45.4%
- IC50: ~10 µM

Structure (SMILES): O=C(C1CC1)N1CCC[C@H](CN2C(=O)C3(CC3)N=C2c2ccc(-c3ccc(-c4cccc(Cl)c4)cc3)cc2)C1 [compound 813, (S)-5-(3″-chloro-[1,1′:4′,1″-tertphenyl]-4-yl)-6-((1-(cyclopropanecarbonyl)piperidin-3-yl)methyl)-4,6-diazaspiro[2.4]hept-4-en-7-one]
- inhibition at 10 µM: 2%
- IC50: > 10 µM

Structure (SMILES): O=C(C1CC1)N1CC[C@@H](CN2C(=O)C3(CC3)N=C2c2ncc(-c3ccc4occc4c3)cn2)C1 [compound 437, 5-[5-(1-Benzofuran-5-yl)pyrimidin-2-yl]-6-{[(3R)-1-(cyclopropylcarbonyl)pyrrolidin-3-yl]methyl}-4,6-diazaspiro[2.4]hept-4-en-7-one]
- inhibition at 10 µM: 72%
- IC50: 2.75 µM
